# Measured values published in patent US20240189380A1, “COMPOSITIONS FOR INHIBITING EHP INFECTION IN SHRIMP AND RELATED METHODS” (priority 2022, published 2024).
# Test system: EHP spores
# Experiment: In vitro inactivation of polar tube extrusion of EHP spores
# Assay type: cell-based, Enterocytozoon hepatopenaei
# Settings: for polar tube extrusion of EHP spores compared to DMSO control: p>0.05; for polar tube extrusion rate: Batch 1 spores (high saline culture), 2 hours at 37° C.; for % of extrusion post-incubation: Batch 2 spores (low saline culture)
# Method: The mechanism of EHP infection involves extrusion of polar tube (adhesive mechanism). In an in vitro study, inactivation of polar tube extrusion of EHP spores were tested with selected active ingredients namely thymoquinone, cinnamic aldehyde, eugenol, and carvacrol. The stock solution of bioactive molecules was prepared in dimethyl sulfoxide (DMSO) and further working solution prepared with 1× sterile phosphate buffer saline (1×PBS).
# EHP spores were isolated and purified from HP of infected shrimps from high saline shrimp culture system (Batch 1) and low saline shrimp culture system (Batch 2). Purified spores were then incubated with the test molecules at a desired concentration for 2 hours at 37° C. Washed spores were then induced for polar tube extrusion with alkaline agent. The extrusion of the spore polar tubes was determined under a light microscope at 100× magnification by counting the number of extruded spores from a total of 100 spores and converting the number into % of extrusion.
# Statistical analysis. The One-way analysis of variance (ANOVA) and t-Test were performed to determine the significant differences at a 95% confidence interval of % polar tube extrusion between spores treated with bioactive molecules and the corresponding DMSO control. The analyses were carried out using STATGRAPHICS centurion.
SMILES,polar tube extrusion of EHP spores compared to DMSO control (100 ppm),polar tube extrusion rate (10 ppm) [%],polar tube extrusion rate (100 ppm) [%],"% of extrusion post-incubation (10 ppm, 2% DMSO control 86.47%) [%]","% of extrusion post-incubation (100 ppm, 20% DMSO control 88.32%) [%]"
Cc1ccc(C(C)C)cc1O [Carvacrol],slight reduction,–,–,–,–
C=CCc1ccc(O)c(OC)c1 [Eugenol],slight reduction,–,–,–,–
CC1=CC(=O)C(C(C)C)=CC1=O [Thymoquinone],–,43.92,6.34,40.31,0.31
O=C/C=C/c1ccccc1 [Cinnamic aldehyde],slight reduction,–,–,–,–
